Where two headings read alike, the source gives them in different places.
System: P. aeruginosa
Assay: MIC, broth microdilution, CDC/FDA Antibiotic Resistance Isolate Bank (Example 7, Tables 10, 15)
Format: cell-based
Conditions: for MIC: Pseudomonas aeruginosa, read-out: MIC
[1] = 26 metallo-carbapenemase-producing P. aeruginosa strains, β-lactamase inhibitor µg/mL in parentheses
[2] = 96 strains of P. aeruginosa, β-lactamase inhibitor µg/mL in parentheses

CO/N=C(\C(=O)N[C@@H]1C(=O)N2C(C(=O)[O-])=C(C[n+]3ccn4ncccc43)CS[C@H]12)c1nsc(N)n1 [Cefozopran, cefozopran]
0.064 µg/mL: MIC (P. aeruginosa KUB No. 5820, AR Bank # 515)
0.016 µg/mL: MIC (P. aeruginosa KUB No. 5818, AR Bank # 513)
> 64 µg/mL: MIC (P. aeruginosa KUB No. 5083, AR Bank # 250) | MIC (P. aeruginosa KUB No. 5551, AR Bank # 54) | MIC (P. aeruginosa KUB No. 5561, AR Bank # 64) | MIC (P. aeruginosa KUB No. 5587, AR Bank # 90) | MIC (P. aeruginosa KUB No. 5589, AR Bank # 92) | MIC (P. aeruginosa KUB No. 5597, AR Bank # 100) | MIC (P. aeruginosa KUB No. 5600, AR Bank # 103) | MIC (P. aeruginosa KUB No. 5605, AR Bank # 108) | MIC (P. aeruginosa KUB No. 5607, AR Bank # 110) | MIC (P. aeruginosa KUB No. 5608, AR Bank # 111) | MIC (P. aeruginosa KUB No. 5663, AR Bank # 230) | MIC (P. aeruginosa KUB No. 5664, AR Bank # 231) | MIC (P. aeruginosa KUB No. 5668, AR Bank # 235) | MIC (P. aeruginosa KUB No. 5672, AR Bank # 239) | MIC (P. aeruginosa KUB No. 5673, AR Bank # 240) | MIC (P. aeruginosa KUB No. 5674, AR Bank # 241) | MIC (P. aeruginosa KUB No. 5675, AR Bank # 242) | MIC (P. aeruginosa KUB No. 5676, AR Bank # 243) | MIC (P. aeruginosa KUB No. 5678, AR Bank # 245) | MIC (P. aeruginosa KUB No. 5679, AR Bank # 246) | MIC (P. aeruginosa KUB No. 5681, AR Bank # 248) | MIC (P. aeruginosa KUB No. 5682, AR Bank # 249) | MIC (P. aeruginosa KUB No. 5687, AR Bank # 254) | MIC (P. aeruginosa KUB No. 5688, AR Bank # 255) | MIC (P. aeruginosa KUB No. 5747, AR Bank # 351) | MIC (P. aeruginosa KUB No. 5748, AR Bank # 352) | MIC (P. aeruginosa KUB No. 5749, AR Bank # 353) | MIC (P. aeruginosa KUB No. 5752, AR Bank # 356) | MIC (P. aeruginosa KUB No. 5753, AR Bank # 357) | MIC (P. aeruginosa KUB No. 5785, AR Bank # 439) | MIC (P. aeruginosa KUB No. 5787, AR Bank # 441) | MIC (P. aeruginosa KUB No. 5788, AR Bank # 443) | MIC (P. aeruginosa KUB No. 5789, AR Bank # 444) | MIC (P. aeruginosa KUB No. 5793, AR Bank # 449) | MIC (P. aeruginosa KUB No. 5800, AR Bank # 457) | MIC (P. aeruginosa KUB No. 5805, AR Bank # 863)
>64 µg(mL): MIC against 26 metallo-carbapenemase-producing strains MIC50 [1] | MIC against 26 metallo-carbapenemase-producing strains MIC90 [1] | MIC against 26 metallo-carbapenemase-producing strains MICrange [1] | MIC against 96 strains of P. aeruginosa MIC90 [2]
0.008 µg/mL: MIC (P. aeruginosa KUB No. 5831, AR Bank # 526) | MIC (P. aeruginosa KUB No. 5832, AR Bank # 527) | MIC (P. aeruginosa KUB No. 5834, AR Bank # 529)
0.002 µg/mL: MIC (P. aeruginosa KUB No. 5817, AR Bank # 512)
0.5 µg/mL: MIC (P. aeruginosa KUB No. 579, AR Bank # 447) | MIC (P. aeruginosa KUB No. 5670, AR Bank # 237) | MIC (P. aeruginosa KUB No. 5689, AR Bank # 256) | MIC (P. aeruginosa KUB No. 5697, AR Bank # 264) | MIC (P. aeruginosa KUB No. 5705, AR Bank # 272)
8 µg/mL: MIC (P. aeruginosa KUB No. 5677, AR Bank # 244) | MIC (P. aeruginosa KUB No. 5684, AR Bank # 251) | MIC (P. aeruginosa KUB No. 5690, AR Bank # 257) | MIC (P. aeruginosa KUB No. 5698, AR Bank # 265) | MIC (P. aeruginosa KUB No. 5699, AR Bank # 266) | MIC (P. aeruginosa KUB No. 5750, AR Bank # 354) | MIC (P. aeruginosa KUB No. 5756, AR Bank # 360)
2 µg/mL: MIC (P. aeruginosa KUB No. 5666, AR Bank # 23) | MIC (P. aeruginosa KUB No. 5667, AR Bank # 234) | MIC (P. aeruginosa KUB No. 5695, AR Bank # 262) | MIC (P. aeruginosa KUB No. 5696, AR Bank # 263)
4 µg/mL: MIC (P. aeruginosa KUB No. 5665, AR Bank # 232) | MIC (P. aeruginosa KUB No. 5669, AR Bank # 236) | MIC (P. aeruginosa KUB No. 5680, AR Bank # 247) | MIC (P. aeruginosa KUB No. 5686, AR Bank # 253) | MIC (P. aeruginosa KUB No. 5693, AR Bank # 260) | MIC (P. aeruginosa KUB No. 5694, AR Bank # 261) | MIC (P. aeruginosa KUB No. 5700, AR Bank # 267) | MIC (P. aeruginosa KUB No. 5703, AR Bank # 270)
> 0.064 µg/mL: MIC (P. aeruginosa KUB No. 5813, AR Bank # 508) | MIC (P. aeruginosa KUB No. 5814, AR Bank # 509) | MIC (P. aeruginosa KUB No. 5821, AR Bank # 516) | MIC (P. aeruginosa KUB No. 5823, AR Bank # 518)
64 µg/mL: MIC (P. aeruginosa KUB No. 5591, AR Bank # 94) | MIC (P. aeruginosa KUB No. 5801, AR Bank # 458) | MIC (P. aeruginosa KUB No. 5806, AR Bank # 864)
32 µg/mL: MIC (P. aeruginosa KUB No. 5701, AR Bank # 268) | MIC (P. aeruginosa KUB No. 5786, AR Bank # 440) | MIC (P. aeruginosa KUB No. 5790, AR Bank # 445) | MIC (P. aeruginosa KUB No. 5798, AR Bank # 455) | MIC (P. aeruginosa KUB No. 5799, AR Bank # 456) | MIC (P. aeruginosa KUB No. 5802, AR Bank # 459) | MIC (P. aeruginosa KUB No. 5804, AR Bank # 862)
16 µg/mL: MIC (P. aeruginosa KUB No. 5602, AR Bank # 105) | MIC (P. aeruginosa KUB No. 5662, AR Bank # 229) | MIC (P. aeruginosa KUB No. 5685, AR Bank # 252) | MIC (P. aeruginosa KUB No. 5751, AR Bank # 355) | MIC (P. aeruginosa KUB No. 5754, AR Bank # 358) | MIC (P. aeruginosa KUB No. 5755, AR Bank # 359)
1 µg/mL: MIC (P. aeruginosa KUB No. 5592, AR Bank # 95) | MIC (P. aeruginosa KUB No. 5671, AR Bank # 238) | MIC (P. aeruginosa KUB No. 5691, AR Bank # 258) | MIC (P. aeruginosa KUB No. 5692, AR Bank # 259) | MIC (P. aeruginosa KUB No. 5702, AR Bank # 269) | MIC (P. aeruginosa KUB No. 5704, AR Bank # 271)
32 µg(mL): MIC against 96 strains of P. aeruginosa MIC50 [2]
0.032 µg/mL: MIC (P. aeruginosa KUB No. 5833, AR Bank # 528)
0.0005 µg/mL: MIC (P. aeruginosa KUB No. 5816, AR Bank # 511) | MIC (P. aeruginosa KUB No. 5819, AR Bank # 514)
0.004 µg/mL: MIC (P. aeruginosa KUB No. 5815, AR Bank # 510)
